Experimental data published in patent US11485707B2, “Deuterated compounds as rock inhibitors” (Fochon Pharmaceuticals, Ltd., priority 2018, dated 2022).
Structures can show the parent of a compound that is named as a salt.

Conditions: male Chinchilla rabbits, topical to right eye once daily for 3 days, 30 μL/eye/dose; dosing on day 3 at 24 h; vs control
Method: ROCK In Vivo Inhibition Activity-Method C
Eighteen male rabbits were randomly assigned to 3 groups (6 animals/group). […] Clinical observations and ophthalmic examinations were performed once daily. IOP was measured by TONOVET Plus before first dosing, and at 0.5, 2, 4, 6 and 24 h after each first dosing on day 1 and day 3.
The change of IOP % was calculated using the following formula: The change of IOP %(ΔIOP %)=[IOP(time)−IOP(control)]/IOP(control)*100).
Select compounds prepared as described above were assayed according to the biological procedures described in Method C.

SMILES | ΔIOP %
[2H]c1nccc2cc(NC(=O)[C@H](CN)c3ccc(COC(=O)c4ccc(C)cc4C)cc3)ccc12 [Example 1, (S)-4-(3-amino-1-((isoquinolin-6-yl-1-d)amino)-1-oxopropan-2-yl)benzyl 2,4-dimethylbenzoate] | −1.5%
[2H]C([2H])(OC(=O)c1ccc(C)cc1C)c1ccc([C@@H](CN)C(=O)Nc2ccc3cnccc3c2)cc1 [Example 3, (S)-(4-(3-amino-1-(isoquinolin-6-ylamino)-1-oxopropan-2-yl)phenyl)methyl-d2 2,4-dimethylbenzoate] | −5.02%
[2H]c1nccc2cc(NC(=O)[C@@H](c3ccc(COC(=O)c4ccc(C)cc4C)cc3)C([2H])([2H])N)ccc12 [Example 4, (S)-4-(3-amino-1-((isoquinolin-6-yl-1-d)amino)-1-oxopropan-2-yl-3,3-d2)benzyl 2,4-dimethylbenzoate dihydrochloride] | −15.63%
[2H]C([2H])([2H])c1ccc(C(=O)OC([2H])([2H])c2ccc([C@]([2H])(C(=O)Nc3ccc4cnccc4c3)C([2H])([2H])N)cc2)c(C([2H])([2H])[2H])c1 [Example 5, (S)-(4-(3-amino-1-(isoquinolin-6-ylamino)-1-oxopropan-2-yl-2,3,3-d3)phenyl)methyl-d2 2,4-bis(methyl-d3)benzoate dihydrochloride] | 1.19%
[2H]C([2H])([2H])c1ccc(C(=O)OC([2H])([2H])c2ccc([C@@]([2H])(CN)C(=O)Nc3ccc4cnccc4c3)cc2)c(C([2H])([2H])[2H])c1 [Example 6, (S)-(4-(3-amino-1-(isoquinolin-6-ylamino)-1-oxopropan-2-yl-2-d)phenyl)methyl-d2 2,4-bis(methyl-d3)benzoate dihydrochloride] | −16.08%
[2H]c1nccc2cc(NC(=O)[C@@]([2H])(c3ccc(C([2H])([2H])OC(=O)c4ccc(C)cc4C)cc3)C([2H])([2H])N)ccc12 [Example 7, (S)-(4-(3-amino-1-((isoquinolin-6-yl-1-d)amino)-1-oxopropan-2-yl-2,3,3-d3)phenyl)methyl-d2 2,4-dimethylbenzoate dihydrochloride] | 0.48%
[2H]C([2H])(OC(=O)c1ccc(C)cc1C)c1ccc([C@H](C(=O)Nc2ccc3cnccc3c2)C([2H])([2H])N)cc1 [Example 8, (S)-(4-(3-amino-1-(isoquinolin-6-ylamino)-1-oxopropan-2-yl-3,3-d2)phenyl)methyl-d2 2,4-dimethylbenzoate dihydrochloride] | −7.52%
[2H]C([2H])(OC(=O)c1ccc(C)cc1C)c1ccc([C@@]([2H])(CN)C(=O)Nc2ccc3cnccc3c2)cc1 [Example 9, (S)-(4-(3-amino-1-(isoquinolin-6-ylamino)-1-oxopropan-2-yl-2-d)phenyl)methyl-d2 2,4-dimethylbenzoate dihydrochloride] | −3.06%
[2H]C([2H])(OC(=O)c1ccc(C)cc1C)c1ccc([C@]([2H])(C(=O)Nc2ccc3cnccc3c2)C([2H])([2H])N)cc1 [Example 10, (S)-(4-(3-amino-1-(isoquinolin-6-ylamino)-1-oxopropan-2-yl-2,3,3-d3)phenyl)methyl-d2 2,4-dimethylbenzoate dihydrochloride] | −0.78%
[2H]C([2H])(N)[C@@H](C(=O)Nc1ccc2cnccc2c1)c1ccc(COC(=O)c2ccc(C)cc2C)cc1 [Example 11, (S)-4-(3-amino-1-(isoquinolin-6-ylamino)-1-oxopropan-2-yl-3,3-d2) benzyl 2,4-dimethylbenzoate dihydrochloride] | −9.57%
[2H]c1nccc2cc(NC(=O)[C@@H](c3ccc(C([2H])([2H])OC(=O)c4ccc(C)cc4C)cc3)C([2H])([2H])N)ccc12 [Example 12, (S)-(4-(3-amino-1-((isoquinolin-6-yl-1-d)amino)-1-oxopropan-2-yl-3,3-d2)phenyl)methyl-d2 2,4-dimethylbenzoate dihydrochloride] | −5.23%
[2H]c1nccc2cc(NC(=O)[C@]([2H])(CN)c3ccc(C([2H])([2H])OC(=O)c4ccc(C)cc4C)cc3)ccc12 [Example 13, (S)-(4-(3-amino-1-((isoquinolin-6-yl-1-d)amino)-1-oxopropan-2-yl-2-d)phenyl) methyl-d2 2,4-dimethylbenzoate dihydrochloride] | −8.48%
[2H]C([2H])([2H])c1ccc(C(=O)OCc2ccc([C@@H](CN)C(=O)Nc3ccc4cnccc4c3)cc2)c(C([2H])([2H])[2H])c1 [Example 14, (S)-4-(3-amino-1-(isoquinolin-6-ylamino)-1-oxopropan-2-yl)benzyl 2,4-bis(methyl-d3)benzoate dihydrochloride] | −5.81%
[2H]C([2H])([2H])c1ccc(C(=O)OC([2H])([2H])c2ccc([C@@H](CN)C(=O)Nc3ccc4cnccc4c3)cc2)c(C([2H])([2H])[2H])c1 [Example 15, (S)-(4-(3-amino-1-(isoquinolin-6-ylamino)-1-oxopropan-2-yl)phenyl)methyl-d2 2,4-bis(methyl-d3)benzoate dihydrochloride] | −4.25%
[2H]C([2H])([2H])c1ccc(C(=O)OCc2ccc([C@H](C(=O)Nc3ccc4cnccc4c3)C([2H])([2H])N)cc2)c(C([2H])([2H])[2H])c1 [Example 16, (S)-4-(3-amino-1-(isoquinolin-6-ylamino)-1-oxopropan-2-yl-3,3-d2)benzyl 2,4-bis(methyl-d3)benzoate dihydrochloride] | −1.44%
[2H]c1nccc2cc(NC(=O)[C@H](CN)c3ccc(C([2H])([2H])OC(=O)c4ccc(C)cc4C)cc3)ccc12 [Example 18, (S)-(4-(3-amino-1-((isoquinolin-6-yl-1-d)amino)-1-oxopropan-2-yl)phenyl) methyl-d2 2,4-dimethylbenzoate] | −1.1%
[2H]c1nccc2cc(NC(=O)[C@H](CN)c3ccc(COC(=O)c4ccc(C([2H])([2H])[2H])cc4C([2H])([2H])[2H])cc3)ccc12 [Example 19, (S)-4-(3-amino-1-((isoquinolin-6-yl-1-d)amino)-1-oxopropan-2-yl)benzyl 2,4-bis(methyl-d3)benzoate dihydrochloride] | −3.3%
[2H]c1nccc2cc(NC(=O)[C@H](CN)c3ccc(C([2H])([2H])OC(=O)c4ccc(C([2H])([2H])[2H])cc4C([2H])([2H])[2H])cc3)ccc12 [Example 20, (S)-(4-(3-amino-1-((isoquinolin-6-yl-1-d)amino)-1-oxopropan-2-yl)phenyl) methyl-d2 2,4-bis (methyl-d3)benzoate dihydrochloride] | −4.89%
[2H]c1nccc2cc(NC(=O)[C@@H](c3ccc(COC(=O)c4ccc(C([2H])([2H])[2H])cc4C([2H])([2H])[2H])cc3)C([2H])([2H])N)ccc12 [Example 21, (S)-4-(3-amino-1-((isoquinolin-6-yl-1-d)amino)-1-oxopropan-2-yl-3,3-d2) benzyl 2,4-bis(methyl-d3)benzoate dihydrochloride] | −5.06%
[2H]c1nccc2cc(NC(=O)[C@@H](c3ccc(C([2H])([2H])OC(=O)c4ccc(C([2H])([2H])[2H])cc4C([2H])([2H])[2H])cc3)C([2H])([2H])N)ccc12 [Example 22, (S)-(4-(3-amino-1-((isoquinolin-6-yl-1-d)amino)-1-oxopropan-2-yl-3,3-d2)phenyl) methyl-d2 2,4-bis (methyl-d3)benzoate dihydrochloride] | 0.08%
[2H]c1nccc2cc(NC(=O)[C@]([2H])(CN)c3ccc(C([2H])([2H])OC(=O)c4ccc(C([2H])([2H])[2H])cc4C([2H])([2H])[2H])cc3)ccc12 [Example 23, (S)-(4-(3-amino-1-((isoquinolin-6-yl-1-d)amino)-1-oxopropan-2-yl-2-d)phenyl) methyl-d2 2,4-bis (methyl-d3)benzoate dihydrochloride] | −0.87%
Cc1ccc(C(=O)OCc2ccc([C@@H](CN)C(=O)Nc3ccc4cnccc4c3)cc2)c(C)c1.Cl.Cl [Reference compound 1, (S)-4-(3-amino-1-(isoquinolin-6-ylamino)-1-oxopropan-2-yl)benzyl 2,4-dimethylbenzoate dihydrochloride, reference compound] | −4.35%
